Laboratory results reported in US12139492B2 (Endotarget Inc., priority 2021, dated 2024).
pIC50: −log10 of the molar value. Like-named read-outs stand apart in the source and are kept apart here.

Legend:
Mino cells = assay: Antiproliferative effect, MTS cell viability assay, Mino cells; format: cell-based; conditions: Mino mantle cell lymphoma cells, read-out: IC50 (anti-proliferation) Mino cells
Method in brief: (§1)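 Mino and JeKo-1 mantle B-cell lymphoma lines were exposed to compound at 0, 0.001, 0.01, 0.1, 1 and 10 μM for 72 h. Viability was read by MTS reduction to formazan, measured as absorbance at 490 nm.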

JeKo-1 cells = assay: Antiproliferative effect, MTS cell viability assay, JeKo-1 cells; format: cell-based; conditions: JeKo-1 mantle cell lymphoma cells, read-out: IC50 (anti-proliferation) JeKO-1 cells
Method in brief: as §1

BTK = BTK (Homo sapiens, UniProt Q06187); assay: Degradation of BTK protein in Namalwa cells (Western blot; DC50, Dmax); conditions: for DC50: cell line not given
Sequence of BTK (Q06187 whole entry): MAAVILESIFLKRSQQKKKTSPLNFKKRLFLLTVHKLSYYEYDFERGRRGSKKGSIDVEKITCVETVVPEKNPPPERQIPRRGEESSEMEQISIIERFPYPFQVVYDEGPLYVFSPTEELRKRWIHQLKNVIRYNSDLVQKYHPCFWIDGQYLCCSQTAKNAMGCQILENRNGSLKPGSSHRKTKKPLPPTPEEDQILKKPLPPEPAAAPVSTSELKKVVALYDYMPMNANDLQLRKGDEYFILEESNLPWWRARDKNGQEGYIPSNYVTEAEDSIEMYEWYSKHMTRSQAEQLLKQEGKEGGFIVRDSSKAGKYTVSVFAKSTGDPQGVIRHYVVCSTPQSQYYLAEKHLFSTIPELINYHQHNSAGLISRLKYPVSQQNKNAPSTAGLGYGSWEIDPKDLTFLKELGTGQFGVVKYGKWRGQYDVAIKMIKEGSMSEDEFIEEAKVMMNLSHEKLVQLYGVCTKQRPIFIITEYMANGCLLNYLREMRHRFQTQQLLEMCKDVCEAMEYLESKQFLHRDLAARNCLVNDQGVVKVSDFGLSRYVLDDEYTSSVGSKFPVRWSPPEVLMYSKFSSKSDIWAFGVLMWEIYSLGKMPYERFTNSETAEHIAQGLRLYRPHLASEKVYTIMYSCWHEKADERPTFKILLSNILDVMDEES

[1] = read-out: DC50 (BTK degradation), concentration giving 50% reduction of BTK expression level
[2] = read-out: Dmax (BTK degradation)

| SMILES | DC50 (BTK; [1]) | Dmax (BTK; [2]) | Dmax (BTK) | DC50 (BTK; BTK degradation) | pIC50 (Mino cells; Homo sapiens, MINO) | pIC50 (JeKo-1 cells; Homo sapiens) | pIC50 (Mino cells) | pIC50 (JeKo-1 cells) |
| --- | --- | --- | --- | --- | --- | --- | --- | --- |
| NC(=O)c1c(-c2ccc(Oc3ccccc3)cc2)nn2c1NCCC2C1CCN(C2CCN(C(=O)N3CCC(CN4CCC(c5ccc6c(c5)CN(C5CCC(=O)NC5=O)C6=O)CC4)CC3)CC2)CC1 (stereo not drawn) [Compound 356, 7-(1′-(4-((4-(2-(2,6-dioxopiperidin-3-yl)-1-oxoisoindolin-5-yl)piperidin-1-yl)methyl)piperidine-1-carbonyl)-[1,4′-bipiperidin]-4-yl)-2-(4-phenoxyphenyl)-4,5,6,7-tetrahydropyrazolo[1,5-a]pyrimidine-3-carboxamide] | – | – | > 90% | < 10 nM | > 6.00 | 5.00 to 6.00 | – | – |
| Nc1ncnc2c1c(-c1ccc(Oc3ccccc3)cc1)nn2[C@@H]1CCCN(C(=O)CCCN2CCN(c3ccc4c(c3)C(=O)N(C3CCC(=O)NC3=O)C4=O)CC2)C1 (stereo partly drawn) [Compound 525, 5-(4-(4-((R)-3-(4-amino-3-(4-phenoxyphenyl)-1H-pyrazolo[3,4-d]pyrimidin-1-yl)piperidin-1-yl)-4-oxobutyl)piperazin-1-yl)-2-(2,6-dioxopiperidin-3-yl)isoindoline-1,3-dione] | < 10 nM | > 90% | – | – | 5.00 to 6.00 | > 6.00 | – | – |
| NC(=O)c1c(-c2ccc(Oc3ccccc3)cc2)nn2c1NCCC2C1CCN(C2CCN(C(=O)N3CCC(N4CCN(c5ccc6c(c5)CN(C5CCC(=O)NC5=O)C6=O)CC4)CC3)CC2)CC1 (stereo not drawn) [Compound 342, 7-(1′-(4-(4-(2-(2,6-dioxopiperidin-3-yl)-1-oxoisoindolin-5-yl)piperazin-1-yl)piperidine-1-carbonyl)-[1,4′-bipiperidin]-4-yl)-2-(4-phenoxyphenyl)-4,5,6,7-tetrahydropyrazolo[1,5-a]pyrimidine-3-carboxamide] | – | – | > 90% | < 10 nM | > 6.00 | > 6.00 | – | – |
| Nc1ncnc2c1c(-c1ccc(Oc3ccccc3)cc1)nn2C1CCN(C2CCN(CC3CCN(c4ccc5c(c4)C(=O)N(C4CCC(=O)NC4=O)C5=O)CC3)CC2)CC1 (stereo in doubt) [Compound 213b, (S)-5-(4-((4-(4-amino-3-(4-phenoxyphenyl)-1H-pyrazolo[3,4-d]pyrimidin-1-yl)-[1,4′-bipiperidin]-1′-yl)methyl)piperidin-1-yl)-2-(2,6-dioxopiperidin-3-yl)isoindoline-1,3-dione] | – | – | – | < 10 nM | – | – | > 6.00 | > 6.00 |
| NC(=O)c1c(-c2ccc(Oc3ccccc3)cc2)nn2c1NCC[C@H]2C1CCN(CC2CCN(C(=O)N3CCN(Cc4ccc5c(c4)CN(C4CCC(=O)NC4=O)C5=O)CC3)CC2)CC1 (stereo partly drawn) [Compound 400, (7S)-7-(1-((1-(4-((2-(2,6-dioxopiperidin-3-yl)-1-oxoisoindolin-5-yl)methyl)piperazine-1-carbonyl)piperidin-4-yl)methyl)piperidin-4-yl)-2-(4-phenoxyphenyl)-4,5,6,7-tetrahydropyrazolo[1,5-a]pyrimidine-3-carboxamide] | > 50 nM | > 50% | – | – | < 5.00 | < 5.00 | – | – |
| Nc1ncnc2c1c(-c1ccc(Oc3ccccc3)cc1)nn2C1CCN(C2CCN(C(=O)N3CCN(CCN4CCC(c5ccc6c(c5)C(=O)N(C5CCC(=O)NC5=O)C6=O)CC4)CC3)CC2)CC1 (stereo not drawn) [Compound 249, 5-(1-(2-(4-(4-(4-amino-3-(4-phenoxyphenyl)-1H-pyrazol[3,4-d]pyrimidin-1-yl)-[1,4′-bipiperidine]-1′-carbonyl)piperazin-1-yl)ethyl)piperidin-4-yl)-2-(2,6-dioxopiperidin-3-yl)isoindoline-1,3-dione] | – | – | > 75% | 10 to 50 nM | > 6.00 | 5.00 to 6.00 | – | – |
| NC(=O)c1c(-c2ccc(Oc3ccccc3)cc2)nn2c1NCC[C@H]2C1CCN(CC2CCN(CCC3CCN(c4ccc5c(c4)C(=O)N(C4CCC(=O)NC4=O)C5=O)CC3)CC2)CC1 (stereo partly drawn) [Compound 333, (7S)-7-(1-((1-(2-(1-(2-(2,6-dioxopiperidin-3-yl)-1,3-dioxoisoindolin-5-yl)piperidin-4-yl)ethyl)piperidin-4-yl)methyl)piperidin-4-yl)-2-(4-phenoxyphenyl)-4,5,6,7-tetrahydropyrazolo[1,5-a]pyrimidine-3-carboxamide] | – | – | > 75% | 10 to 50 nM | 5.00 to 6.00 | < 5.00 | – | – |
| NC(=O)c1c(-c2ccc(Oc3ccccc3)cc2)nn2c1NCCC2C1CCN(CC2CCN(C(=O)N3CCC(C4CCN(c5ccc6c(c5)CN(C5CCC(=O)NC5=O)C6=O)CC4)CC3)CC2)CC1 (stereo not drawn) [Compound 366, 7-(1-((1-(1′-(2-(2,6-dioxopiperidin-3-yl)-1-oxoisoindolin-5-yl)-[4,4′-bipiperidine]-1-carbonyl)piperidin-4-yl)methyl)piperidin-4-yl)-2-(4-phenoxyphenyl)-4,5,6,7-tetrahydropyrazolo[1,5-a]pyrimidine-3-carboxamide] | – | – | > 90% | < 10 nM | > 6.00 | > 6.00 | – | – |

More lines, main results first:

| DC50 (BTK; [1]) | Dmax (BTK; [2]) | Dmax (BTK) | DC50 (BTK; BTK degradation) | SMILES | pIC50 (Mino cells; Homo sapiens, MINO) | pIC50 (JeKo-1 cells; Homo sapiens) | pIC50 (Mino cells) | pIC50 (JeKo-1 cells) |
| --- | --- | --- | --- | --- | --- | --- | --- | --- |
| < 10 nM | > 90% | – | – | Nc1ncnc2c1c(-c1ccc(Oc3ccccc3)cc1)nn2C1CCN(CCN2CCC(CSc3ccc4c(c3)CN(C3CCC(=O)NC3=O)C4=O)C2)CC1 (stereo not drawn) [Compound 474, 3-(5-(((1-(2-(4-(4-amino-3-(4-phenoxyphenyl)-1H-pyrazolo[3,4-d]pyrimidin-1-yl)piperidin-1-yl)ethyl)pyrrolidin-3-yl)methyl)thio)-1-oxoisoindolin-2-yl)piperidine-2,6-dione] | 5.00 to 6.00 | 5.00 to 6.00 | – | – |
| – | – | > 75% | 10 to 50 nM | NC(=O)c1c(-c2ccc(Oc3ccccc3)cc2)nn2c1NCC[C@H]2C1CCN(CC2CCN(CC3CCN(c4ccc5c(c4)C(=O)N(C4CCC(=O)NC4=O)C5=O)CC3)CC2)CC1 (stereo partly drawn) [Compound 329, (7S)-7-(1-((1-((1-(2-(2,6-dioxopiperidin-3-yl)-1,3-dioxoisoindolin-5-yl)piperidin-4-yl)methyl)piperidin-4-yl)methyl)piperidin-4-yl)-2-(4-phenoxyphenyl)-4,5,6,7-tetrahydropyrazolo[1,5-a]pyrimidine-3-carboxamide] | < 5.00 | < 5.00 | – | – |
| 10 to 50 nM | > 90% | – | – | Nc1ncnc2c1c(-c1ccc(Oc3ccccc3)cc1)nn2C1CCN(C[C@H]2CCN(CC3CCN(c4ccc5c(c4)C(=O)N(C4CCC(=O)NC4=O)C5=O)CC3)C2)CC1 (stereo partly drawn) [Compound 445a, 5-(4-(((R)-3-((4-(4-amino-3-(4-phenoxyphenyl)-1H-pyrazolo[3,4-d]pyrimidin-1-yl)piperidin-1-yl)methyl)pyrrolidin-1-yl)methyl)piperidin-1-yl)-2-(2,6-dioxopiperidin-3-yl)isoindoline-1,3-dione] | 5.00 to 6.00 | 5.00 to 6.00 | – | – |
| < 10 nM | > 90% | – | – | Nc1ncnc2c1c(-c1ccc(Oc3ccccc3)cc1)nn2C1CCN(CCN2CCC(CN3CCN(c4ccc(N5CCC(=O)NC5=O)cc4)CC3)CC2)CC1 [Compound 554, 1-(4-(4-((1-(2-(4-(4-amino-3-(4-phenoxyphenyl)-1H-pyrazolo[3,4-d]pyrimidin-1-yl)piperidin-1-yl)ethyl)piperidin-4-yl)methyl)piperazin-1-yl)phenyl)dihydropyrimidine-2,4(1H,3H)-dione] | > 6.00 | > 6.00 | – | – |
| < 10 nM | > 90% | – | – | Nc1ncnc2c1c(-c1ccc(Oc3ccccc3)cc1)nn2C1CCN(CC2CCN(CCCC(=O)N3CCC(c4ccc5c(c4)CN(C4CCC(=O)NC4=O)C5=O)CC3)CC2)CC1 (stereo not drawn) [Compound 422, 3-(5-(1-(4-(4-((4-(4-amino-3-(4-phenoxyphenyl)-1H-pyrazolo(3,4-d)pyrimidin-1-yl)piperidin-1-yl)methyl)piperidin-1-yl)butanoyl)piperidin-4-yl)-1-oxoisoindolin-2-yl)piperidine-2,6-dione] | > 6.00 | > 6.00 | – | – |
| – | – | > 90% | 10 to 50 nM | NC(=O)c1c(-c2ccc(Oc3ccccc3)cc2)nn2c1NCC[C@H]2C1CCN(CCOCCOCCN2CCN(c3ccc4c(c3)C(=O)N(C3CCC(=O)NC3=O)C4=O)CC2)CC1 (stereo partly drawn) [Compound 271, (7S)-7-(1-(2-(2-(2-(4-(2-(2,6-dioxopiperidin-3-yl)-1,3-dioxoisoindolin-5-yl)piperazin-1-yl)ethoxy)ethoxy)ethyl)piperidin-4-yl)-2-(4-phenoxyphenyl)-4,5,6,7-tetrahydropyrazolo[1,5-a]pyrimidine-3-carboxamide] | 5.00 to 6.00 | < 5.00 | – | – |
| – | – | > 75% | 10 to 50 nM | NC(=O)c1c(-c2ccc(Oc3ccccc3)cc2)nn2c1NCCC2C1CCN(C(=O)N2CCN(CCC3CCN(c4ccc5c(c4)CN(C4CCC(=O)NC4=O)C5=O)CC3)CC2)CC1 (stereo not drawn) [Compound 284, 7-(1-(4-(2-(1-(2-(2,6-dioxopiperidin-3-yl)-1-oxoisoindolin-5-yl)piperidin-4-yl)ethyl)piperazine-1-carbonyl)piperidin-4-yl)-2-(4-phenoxyphenyl)-4,5,6,7-tetrahydropyrazolo[1,5-a]pyrimidine-3-carboxamide] | 5.00 to 6.00 | 5.00 to 6.00 | – | – |
| – | – | > 75% | 10 to 50 nM | Nc1ncnc2c1c(-c1ccc(Oc3ccccc3)cc1)nn2C1CCN(CC2CCN(CCCC3CCN(c4ccc5c(c4)C(=O)N(C4CCC(=O)NC4=O)C5=O)CC3)CC2)CC1 (stereo not drawn) [Compound 211, 5-(4-(3-(4-((4-(4-amino-3-(4-phenoxyphenyl)-1H-pyrazolo[3,4-d]pyrimidin-1-yl)piperidin-1-yl)methyl)piperidin-1-yl)propyl)piperidin-1-yl)-2-(2,6-dioxopiperidin-3-yl)isoindoline-1,3-dione] | 5.00 to 6.00 | < 5.00 | – | – |
